From ChEMBL document CHEMBL5625209, “Rational design and optimization of acylthioureas as novel potent influenza virus non-nucleoside polymerase inhibitors” (Eur J Med Chem, 2023)

What follows are molecules tested on Influenza A virus (assay: Antiviral activity against Influenza A virus H1N1 (A/Puerto Rico/8/34) harboring H274Y mutant infected in MDCK cells).
Format: functional, organism-based

Row | SMILES | EC50 [nM]
1 | CC(C)(C)c1ccc(C(=O)NC(=S)Nc2ccc(NC(=O)c3ccc(Cl)cc3)cc2)cc1 | 400
2 | CC(C)(C)c1ccc(C(=O)NC(=S)Nc2ccc(NC(=O)c3ccccc3)cc2)cc1 | 600
3 | CCC(=O)Nc1ccc(NC(=S)NC(=O)c2ccc(C(C)(C)C)cc2)cc1 | 5400
4 | CC(C)(C)c1ccc(C(=O)NC(=S)Nc2ccc(O)cc2)cc1 | 9400
5 | CC(C)(C)c1ccc(C(=O)NC(=S)Nc2ccc(NC(=O)c3ccc(C(C)(C)C)cc3)cc2)cc1 | 20
